This assay relates to PC-3 multi-cell spheroids, viability. The assay is described as follows: Anticancer human tumor PC-3 cell line growth inhibition [IpAb].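 On all read-outs here: spheroids exposed to compounds for 7 days before readout.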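 On viability, T/C: 100% = DMSO vehicle control wells.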 To be noted: for viability, T/C: stronger effect = lower value; for pIC50: curve of first compound. In short, it runs like this:
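Multi-cell spheroids of 60% tumour cells, 25% HUVEC and 15% MSC in ultra-low-attachment U-bottom wells, treated with agents combined with ipatasertib or abemaciclib. Half-log ranges top out near clinical Cmax, or 10 microM when Cmax is unknown.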

pIC50: −log10 of the molar value.

The source of these data is PubChem BioAssay AID2060327 (Molecular Pharmacology Branch, DTP, NCI, 2025).

As usually defined, the viability, T/C is the ratio of treated to control. The IC50 is the concentration at which inhibition is half-maximal. In the case of `CC(C)NCC(C(=O)N1CCN(c2ncnc3c2C(C)CC3O)CC1)c1ccc(Cl)cc1` (stereo unspecified), the viability, T/C runs as follows: (compound 0.1 µM) 72.9% [middle of 13 runs]; (compound 0.316 µM) 43.7% [middle of 13 runs]; (compound 1 µM) 24.7% [middle of 12 runs]; (compound 3.16 µM) 14.9% [middle of 12 runs]; (compound 10 µM) 13.3% [middle of 13 runs]. Under “compound alone, run of 44348”, the IC50 was 249 nM [middle of 13 runs].

A word on the pIC50: it is −log10 of the IC50, conventionally taken in molar units. As to `CC(C)n1nc(-c2ccc3oc(N)nc3c2)c2c(N)ncnc21` + CCN1CCN(Cc2ccc(Nc3ncc(F)c(-c4cc(F)c5nc(C)n(C(C)C)c5c4)n3)nc2)CC1, the pIC50 was 8.70 (second compound 0.01 µM); 8.68 (second compound 0.0316 µM); 8.71 (second compound 0.1 µM); 8.74 (second compound 0.316 µM); 8.94 (second compound 1 µM). Besides, the viability, T/C (second compound 0.01 µM, first compound 0.000316 µM) is 81.9%; the viability, T/C (second compound 0.01 µM, first compound 0.001 µM) is 56.2%; the viability, T/C (second compound 0.01 µM, first compound 0.00316 µM) is 48.6%; the viability, T/C (second compound 0.01 µM, first compound 0.01 µM) was 25.9%; the viability, T/C (second compound 0.01 µM, first compound 0.0316 µM) was 11%; the viability, T/C (second compound 0.01 µM, first compound 0.1 µM) was 10%. In addition, the viability, T/C reads like this: (second compound 0.0316 µM, first compound 0.000316 µM) 55.2%; (second compound 0.0316 µM, first compound 0.001 µM) 55.7%; (second compound 0.0316 µM, first compound 0.00316 µM) 47%; (second compound 0.0316 µM, first compound 0.01 µM) 18.6%; (second compound 0.0316 µM, first compound 0.0316 µM) 11.7%; (second compound 0.0316 µM, first compound 0.1 µM) 9.52%. For the same compound, the viability, T/C was 59.1% (second compound 0.1 µM, first compound 0.000316 µM); 54.8% (second compound 0.1 µM, first compound 0.001 µM); 45.7% (second compound 0.1 µM, first compound 0.00316 µM); 20% (second compound 0.1 µM, first compound 0.01 µM); 11.2% (second compound 0.1 µM, first compound 0.0316 µM); 9.73% (second compound 0.1 µM, first compound 0.1 µM). For the same compound, the viability, T/C (second compound 0.316 µM, first compound 0.000316 µM) is 65.3%; the viability, T/C (second compound 0.316 µM, first compound 0.001 µM) was 61.8%; the viability, T/C (second compound 0.316 µM, first compound 0.00316 µM) was 39.2%; the viability, T/C (second compound 0.316 µM, first compound 0.01 µM) is 20.1%; the viability, T/C (second compound 0.316 µM, first compound 0.0316 µM) is 13.7%; the viability, T/C (second compound 0.316 µM, first compound 0.1 µM) is 10.8%. Besides, the viability, T/C reads like this: (second compound 1 µM, first compound 0.000316 µM) 55.4%; (second compound 1 µM, first compound 0.001 µM) 54.3%; (second compound 1 µM, first compound 0.00316 µM) 35.3%; (second compound 1 µM, first compound 0.01 µM) 24.1%; (second compound 1 µM, first compound 0.0316 µM) 15.7%; (second compound 1 µM, first compound 0.1 µM) 13.8%.
